Calls of active or inactive are those of the source. No cut-off for these calls is given here.

Series [1] has as its target T1, Kappa-type opioid receptor (Homo sapiens, UniProt P41145). As to the kind of experiment: Displacement of [3H]diprenorphine from human kappa opioid receptor in CHO cells at 10 uM. The class given is cell-based.
The target in series [2] is T2, Mu-type opioid receptor (Homo sapiens, UniProt P35372). As to the kind of experiment: Displacement of [3H]diprenorphine from human mu opioid receptor in CHO cells at 10 uM. The class given is cell-based.
In series [3] the target is T1, Kappa-type opioid receptor. Description: Displacement of [3H]diprenorphine from human kappa opioid receptor in CHO cells. The class given is cell-based.
In series [4] the target is T3, Delta-type opioid receptor (Homo sapiens, UniProt P41143). Description: biochemical.
Description: Displacement of [3H]diprenorphine from human delta opioid receptor in CHO cells
The subject of series [5] is Rattus norvegicus. Description: Antihyperalgesic effect in rat assessed as reversal of Freund's complete adjuvant-induced paw pressure at 3 mg/kg, po. It is filed as functional.
In series [6] the target is Voltage-gated inwardly rectifying potassium channel KCNH2 (Homo sapiens, UniProt Q12809).
Description: Inhibition of human ERG channel in HEK293 cells by voltage-clamp method
In series [7] the target is T3, Delta-type opioid receptor.
Description: Agonist activity at human delta opioid receptor in CHO cells assessed as stimulation of [35S]GTPgammaS binding
Series [8] addresses T2, Mu-type opioid receptor. As to the kind of experiment: Displacement of [3H]diprenorphine from human mu opioid receptor in CHO cells. It is filed as cell-based.
Series [9] can be described thus: Fraction unbound in human plasma at 2 uM. To be noted: read-out: PPB. The class given is ADME, cell-free.
Series [10] is described as follows: Fraction unbound in rat plasma protein at 2 uM. The settings on record: read-out: PPB. It is filed as ADME, cell-free.
A short description of series [11]: Oral bioavailability in rat at 3 mg/kg. It is filed as ADME, organism-based. The settings on record: in vivo.
The subject of series [12] is Rattus norvegicus. As to the kind of experiment: Antidepressant activity in Sprague-Dawley rat assessed as increase in time spent swimming at 3 mg/kg, po by forced swim test. The class given is functional, organism-based. More on the design: dose 3 mg/kg.
The subject of series [13] is Rattus norvegicus. Description: Increase in stereotypic behavior in rat upto 1000 mg/kg, po. The class given is functional, organism-based. Also noted: dose 1000 mg/kg.
A short description of series [14]: Cmax in rat at 0.25 mg/kg, iv and 3.0 mg/kg, po. It is filed as ADME, organism-based. The settings on record: in vivo.
A short description of series [15]: Oral bioavailability in dog at 3 mg/kg. The class given is ADME, organism-based, Canis lupus familiaris. The settings on record: in vivo.
The test system of series [16] is Mus musculus. Description: Increase in stereotypic behavior in mouse upto 1000 mg/kg, po. It is filed as functional, organism-based. Also noted: dose 1000 mg/kg.
Series [17] deals with Rattus norvegicus. Description: Toxicity in rat assessed as EEG disturbances at 10 mg/kg and 30 mg/kg, po. It is filed as organism-based. To be noted: in vivo.
Series [18] relates to Liver microsomes. Description: Metabolic stability in rat liver microsomes. The class given is ADME, Microsome.
Series [19] is described as follows: Half life in rat at 3.0 mg/kg, po. It is filed as ADME, organism-based. More on the design: dose 3 mg/kg, route oral. To be noted: in vivo.
Series [20] is filed under the species Rattus norvegicus. Description: Antihyperalgesic effect in rat assessed as reversal of Freund's complete adjuvant-induced paw pressure after 30 mins. It is filed as functional, organism-based.
Series [21] in a line: Metabolic stability in dog liver microsomes after 30 mins. The settings on record: read-out: Stability. It is filed as ADME, Canis lupus familiaris, Microsome.
For series [22], the species on record is Rattus norvegicus. Description: Antihyperalgesic effect in rat assessed as reversal of Freund's complete adjuvant-induced paw pressure after 60 mins. The class given is functional, organism-based.
Series [23] concerns Rattus norvegicus. As to the kind of experiment: Convulsion activity in rat upto 1000 mg/kg, po. The class given is functional, organism-based. More on the design: dose 1000 mg/kg.
Series [24] can be described thus: Fraction unbound in dog plasma at 2 uM. The class given is ADME, cell-free, Canis lupus familiaris. To be noted: read-out: PPB.
A short description of series [25]: Clearance in dog at 1 mg/kg, iv and 3.0 mg/kg, po. It is filed as ADME, organism-based, Canis lupus familiaris. To be noted: in vivo.
The subject of series [26] is Rattus norvegicus. Description: Antidepressant activity in Sprague-Dawley rat assessed as increase in time spent swimming at 3 mg/kg, po in presence of naltrindole by forced swim test. It is filed as functional, organism-based. Also noted: dose 3 mg/kg.
In series [27] the test system is Mus musculus. Description: Increase in locomotory activity in mouse upto 1000 mg/kg, po. The class given is functional, organism-based. More on the design: dose 1000 mg/kg.
Series [28] relates to Liver microsomes. Description: Metabolic stability in human liver microsomes. The class given is ADME, Microsome.
Series [29] is described as follows: Volume of distribution at steady state in rat at 0.25 mg/kg, iv and 3.0 mg/kg, po. It is filed as ADME, organism-based. The settings on record: in vivo, read-out: Vdss.
Series [30] deals with Rattus norvegicus. As to the kind of experiment: Antihyperalgesic effect in rat assessed as reversal of Freund's complete adjuvant-induced paw pressure at 3 mg/kg, po in presence of naltrindole. The class given is functional, organism-based. Also noted: dose 3 mg/kg.
Series [31] deals with Mus musculus. Description: Convulsion activity in mouse upto 1000 mg/kg, po. The class given is functional, organism-based. Also noted: dose 1000 mg/kg.
Series [32] is filed under the species Rattus norvegicus. As to the kind of experiment: Antihyperalgesic effect in rat assessed as reversal of Freund's complete adjuvant-induced paw pressure. The class given is functional.
Series [33] can be described thus: Volume of distribution at steady state in dog at 1 mg/kg, iv and 3.0 mg/kg, po. The class given is ADME, organism-based, Canis lupus familiaris. To be noted: in vivo, read-out: Vdss.
Series [34] concerns Rattus norvegicus. Description: Increase in locomotory activity in rat upto 1000 mg/kg, po. The class given is functional, organism-based. More on the design: dose 1000 mg/kg.
For series [35], the system named is Rattus norvegicus. As to the kind of experiment: Antidepressant activity in Sprague-Dawley rat assessed as decrease in immobility time at 3 mg/kg, po by forced swim test. The class given is functional, organism-based. Also noted: dose 3 mg/kg.
Series [36] is described as follows: Clearance in rat at 0.25 mg/kg, iv and 3.0 mg/kg, po. The class given is ADME, organism-based. To be noted: in vivo.
Series [37] is described as follows: Cmax in dog at 1 mg/kg, iv and 3.0 mg/kg, po. The class given is ADME, organism-based, Canis lupus familiaris. To be noted: in vivo.
A short description of series [38]: Half life in dog at 3.0 mg/kg, po. The class given is ADME, organism-based, Canis lupus familiaris. Also noted: dose 3 mg/kg, route oral. To be noted: in vivo.

T2 sequence (P35372 whole entry): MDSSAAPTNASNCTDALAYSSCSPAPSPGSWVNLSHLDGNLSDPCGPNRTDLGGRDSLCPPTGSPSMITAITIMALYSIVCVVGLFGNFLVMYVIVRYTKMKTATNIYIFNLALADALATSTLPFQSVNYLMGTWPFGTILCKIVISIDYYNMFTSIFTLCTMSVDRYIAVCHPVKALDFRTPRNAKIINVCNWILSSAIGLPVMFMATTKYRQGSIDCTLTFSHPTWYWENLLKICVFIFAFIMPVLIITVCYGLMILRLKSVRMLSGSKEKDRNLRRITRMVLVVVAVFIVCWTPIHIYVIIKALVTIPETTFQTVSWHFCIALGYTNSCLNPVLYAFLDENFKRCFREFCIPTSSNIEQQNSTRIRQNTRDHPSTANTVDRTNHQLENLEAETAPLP
Voltage-gated inwardly rectifying potassium channel KCNH2, sequence (Q12809 whole entry): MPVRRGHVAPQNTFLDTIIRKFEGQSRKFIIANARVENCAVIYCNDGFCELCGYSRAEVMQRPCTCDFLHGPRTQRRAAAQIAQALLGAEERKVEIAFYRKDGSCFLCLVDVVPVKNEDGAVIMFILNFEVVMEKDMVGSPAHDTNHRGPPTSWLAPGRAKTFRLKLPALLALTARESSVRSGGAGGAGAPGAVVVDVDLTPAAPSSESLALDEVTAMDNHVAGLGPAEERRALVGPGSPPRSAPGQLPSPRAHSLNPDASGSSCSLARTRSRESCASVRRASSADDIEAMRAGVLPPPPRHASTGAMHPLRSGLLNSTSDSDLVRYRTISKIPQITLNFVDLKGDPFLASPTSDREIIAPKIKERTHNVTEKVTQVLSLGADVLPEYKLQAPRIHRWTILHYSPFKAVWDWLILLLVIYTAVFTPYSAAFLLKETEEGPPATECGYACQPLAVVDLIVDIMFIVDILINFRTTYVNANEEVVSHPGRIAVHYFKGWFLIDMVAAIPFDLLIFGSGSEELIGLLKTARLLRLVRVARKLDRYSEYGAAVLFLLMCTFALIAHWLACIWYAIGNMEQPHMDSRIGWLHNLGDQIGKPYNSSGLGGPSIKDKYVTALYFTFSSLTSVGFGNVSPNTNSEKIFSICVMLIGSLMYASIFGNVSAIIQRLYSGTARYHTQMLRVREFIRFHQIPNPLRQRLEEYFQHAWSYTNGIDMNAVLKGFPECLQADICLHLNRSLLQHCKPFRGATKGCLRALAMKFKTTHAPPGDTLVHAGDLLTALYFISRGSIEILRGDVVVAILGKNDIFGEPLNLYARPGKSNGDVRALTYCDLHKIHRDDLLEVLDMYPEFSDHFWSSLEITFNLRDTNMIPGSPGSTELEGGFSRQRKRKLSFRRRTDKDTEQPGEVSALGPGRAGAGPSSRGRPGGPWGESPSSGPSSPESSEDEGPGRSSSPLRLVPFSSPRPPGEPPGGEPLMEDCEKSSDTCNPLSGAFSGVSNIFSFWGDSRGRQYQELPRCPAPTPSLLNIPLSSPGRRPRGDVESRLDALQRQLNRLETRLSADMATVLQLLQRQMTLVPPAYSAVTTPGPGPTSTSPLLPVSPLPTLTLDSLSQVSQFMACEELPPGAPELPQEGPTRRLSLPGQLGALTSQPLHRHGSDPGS
T3 sequence (P41143 whole entry): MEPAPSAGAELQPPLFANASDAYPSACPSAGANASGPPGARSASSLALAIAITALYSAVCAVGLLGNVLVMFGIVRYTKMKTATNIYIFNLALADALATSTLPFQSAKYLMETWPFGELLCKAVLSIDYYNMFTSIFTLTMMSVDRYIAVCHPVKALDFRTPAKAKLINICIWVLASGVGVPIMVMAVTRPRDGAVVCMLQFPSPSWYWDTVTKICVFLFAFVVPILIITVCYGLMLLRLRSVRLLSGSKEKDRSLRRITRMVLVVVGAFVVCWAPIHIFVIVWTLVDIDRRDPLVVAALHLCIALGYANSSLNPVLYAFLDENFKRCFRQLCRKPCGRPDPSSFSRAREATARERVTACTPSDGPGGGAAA
T1 sequence (P41145 whole entry): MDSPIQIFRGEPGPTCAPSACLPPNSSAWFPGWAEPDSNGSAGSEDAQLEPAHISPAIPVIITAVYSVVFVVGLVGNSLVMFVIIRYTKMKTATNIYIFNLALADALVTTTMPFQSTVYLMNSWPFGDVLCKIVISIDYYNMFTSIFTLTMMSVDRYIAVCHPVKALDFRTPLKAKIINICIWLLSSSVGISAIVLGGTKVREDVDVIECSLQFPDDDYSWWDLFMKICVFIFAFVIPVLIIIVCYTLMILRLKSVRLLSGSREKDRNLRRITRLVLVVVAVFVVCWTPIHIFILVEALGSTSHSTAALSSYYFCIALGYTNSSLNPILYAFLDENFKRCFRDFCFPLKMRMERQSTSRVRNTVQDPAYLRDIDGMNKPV

Consider `CCN(CC)C(=O)c1ccccc1C1=CC2(CCNCC2)Oc2ccccc21`, for which the inhibition in series [1] was 45%; at Mu-type opioid receptor [2], 12%.
In [3], `COC(=O)c1ccc(C2=CC3(CCNCC3)Oc3ccccc32)cc1` showed a Ki of 520 nM. The inhibition on Mu-type opioid receptor [2] is 54%.
Regarding `FC(F)(F)c1ccc(C2=CC3(CCNCC3)Oc3ccccc32)cc1`, the Ki in [3] worked out at 2000 nM; in series [4], 150 nM. In addition, at Mu-type opioid receptor [2], the inhibition worked out at 42%.
As to `CCN(CC)C(=O)c1ccc(C2=CC3(CCNCC3)Oc3ccc(O)cc32)cc1`, the Ki in series [3] was 830 nM; in series [4], 0.43 nM. In addition, the Activity in the series on Rattus norvegicus [5] is listed as 35%. Also, in series [6], the IC50 turned out to be 19800 nM. Moreover, the inhibition at Mu-type opioid receptor [2] amounted to 36%. The same molecule yielded an EC50 in series [7] of 1.4 nM.
In series [4], `CCN(CC)C(=O)c1ccc(C2=CC3(CCN(C(C)=O)CC3)Oc3ccccc32)cc1` displayed a Ki of 1300 nM. Also, the inhibition in [1] was determined as 2%; at Mu-type opioid receptor [2] it was 14%. Further, the IC50 in series [6] was found to be 47400 nM.
Take `N#Cc1ccc(C2=CC3(CCNCC3)Oc3ccccc32)cc1`: the Ki in series [4] was determined as 18 nM. Further, the inhibition in [1] was 63%; at Mu-type opioid receptor [2], 60%. Moreover, a half-maximal response in series [7] (EC50) required 200 nM.
The molecule `CCN(CC)C(=O)c1ccc(C2=CC3(CCNCC3)Oc3c(O)cccc32)cc1` gave a Ki in [4] of 360 nM. Further, the inhibition in [1] turned out to be 28%; on Mu-type opioid receptor [2], 4%.
With `CCN(CC)C(=O)c1ccc(C2=CC3(CCNCC3)Oc3cc(O)ccc32)cc1`, the inhibition was 39% in [1] and 35% on Mu-type opioid receptor [2].
`Oc1ccc(C2=CC3(CCNCC3)Oc3ccccc32)cc1` had a Ki in series [4] of 59 nM. For the same molecule, the inhibition in series [1] stood at 58%; at Mu-type opioid receptor [2], 54%. For the same molecule, in series [6], the IC50 was 643 nM. Besides, the EC50 in series [7] was determined as 220 nM.
In series [4], `c1ccc(C2CC3(CCNCC3)Oc3ccccc32)cc1` (stereo not given) returned a Ki of 160 nM.
In turn, `CCN(CC)C(=O)c1cccc(C2=CC3(CCNCC3)Oc3ccccc32)c1` had a Ki in series [4] of 330 nM. In addition, the inhibition was 10% in series [1] and 12% on Mu-type opioid receptor [2].
For `CCN1CCC2(C=C(c3ccc(C(=O)N(CC)CC)cc3)c3ccccc3O2)CC1`, the inhibition (in series [1]; at Mu-type opioid receptor [2]) was 13% throughout.
`O=S(=O)(Cc1ccc(Cl)cc1)N1CCC2(CC1)CC(c1ccccc1)c1ccccc1O2` (stereo not given) yielded a Ki in series [4] of 500 nM.
As for `C=CCN1C[C@H](C)N([C@H](c2ccc(C(=O)N(CC)CC)cc2)c2cccc(O)c2)C[C@H]1C`, the Ki in series [3] was 3400 nM; at Mu-type opioid receptor [8], 260 nM; in series [4], 0.32 nM; in series [1], 130 nM. Besides, the EC50 in series [7] was found to be 0.4 nM.
Take `Cc1ccc(C2=CC3(CCNCC3)Oc3ccccc32)cc1`: the figures for the inhibition (in [1]; at Mu-type opioid receptor [2]) were 57% and 49%, respectively.
On to `C1=C(c2ccccc2)c2ccccc2OC12CCNCC2`, for which, in series [3], the Ki turned out to be 3400 nM. Moreover, the inhibition on Mu-type opioid receptor [2] amounted to 42%.
In series [4], `CCN(CC)C(=O)c1ccc(C2=CC3(CCN(C)CC3)Oc3ccccc32)cc1` displayed a Ki of 3.5 nM. Besides, the results for the inhibition (in series [1]; at Mu-type opioid receptor [2]) were 24% and 12%, respectively. This molecule also yielded an EC50 in series [7] of 89 nM.
Regarding `C=CCN1C[C@H](C)N([C@H](c2ccc(C(=O)N(CC)CC)cc2)c2cccc(OC)c2)C[C@H]1C`, the inhibition in series [1] came to 28%; at Mu-type opioid receptor [2], 25%.
In series [4], `O=C(O)c1ccc(C2=CC3(CCNCC3)Oc3ccccc32)cc1` returned a Ki of 11 nM. Moreover, the inhibition in series [1] is 14%; at Mu-type opioid receptor [2], 13%. The molecule also yielded an EC50 in series [7] of 220 nM.
As to `COc1ccc(C2=CC3(CCNCC3)Oc3ccccc32)cc1`, the inhibition (in [1]; at Mu-type opioid receptor [2]) was 42% throughout.
Consider `CCN(CC)C(=O)c1ccc(C2=CC3(CCNCC3)Oc3cccc(O)c32)cc1` [ADL-5859], for which the fraction unbound at 2 µM in [9] was found to be 0.419; in series [10], 0.159; in [24], 0.152. The bioavailability in series [11] was determined as 33.4%; in series [15] it was 66.5%. Moreover, the result with Rattus norvegicus [12], in the series listed under Rattus norvegicus [20], in the series listed under Rattus norvegicus [22] and in the series with Rattus norvegicus [35] was Active. For the same molecule, the Activity entry is “Non-toxic” with Rattus norvegicus [13]; 100% in the series with Rattus norvegicus [5]; “Non-toxic” in the series with Mus musculus [16]; “Non-toxic” in the series on Rattus norvegicus [17]; “Non-toxic” in the series with Rattus norvegicus [23]; “Non-toxic” with Mus musculus [27]. In addition, the Activity result with Mus musculus [31] and with Rattus norvegicus [34] was “Non-toxic” throughout. In addition, the Cmax in series [14] worked out at 117 nM; in [37], 1730 nM. Moreover, the results for the Stability in the series with Liver microsomes [18] and in the series with Liver microsomes [28] were 69.2% and 64.9%, respectively. The half-life in series [19] was 5.3 h; in series [38] it was 4.7 h. Also, the remaining at 0.5 h in series [21] was found to be 98.7%. Also, the clearance is 6.67 mL/min/kg in series [25] and 30 mL/min/kg in [36]. Besides, the outcome with Rattus norvegicus [26] and in the series on Rattus norvegicus [30] was inactive. The Vd in series [29] came to 10.7 L/kg; in series [33] it was 2.5 L/kg. For the same molecule, the Ki in [4] came to 0.84 nM. For the same molecule, the inhibition in series [1] stood at 37%; on Mu-type opioid receptor [2], 32%. The molecule further showed an IC50 in [6] of 78000 nM. The ED50 in the series listed under Rattus norvegicus [32] was 1.4 mg/kg. Also, the EC50 in [7] turned out to be 20 nM.

The values are drawn from ChEMBL document CHEMBL1140111, “Potent, orally bioavailable delta opioid receptor agonists for the treatment of pain: discovery of N,N-diethyl-4-(5-hydroxyspiro[chromene-2,4'-piperidine]-4-yl)benzamide (ADL5859)” (J Med Chem, 2008).
